In brackets after ≈: the same amount, converted by molar mass.
Legend:
[1] = biological target: Protein O-GlcNAcase (Homo sapiens) (UniProt O60502); assay: Inhibition of human family 84 O-GLcNAcase
[2] = Ratio of human 84 O-GLcNAcase to Vibrio cholerae NagZ
Homo sapiens = species on record: Homo sapiens; assay: Inhibition of human family 20 beta-hexosaminidase
[3] = biological target: T1, Beta-hexosaminidase (Vibrio cholerae serotype O1 (strain ATCC 39315 / El Tor Inaba N16961)) (UniProt Q9KU37); assay: Inhibition of Vibrio cholerae NagZ
T1 sequence (whole entry): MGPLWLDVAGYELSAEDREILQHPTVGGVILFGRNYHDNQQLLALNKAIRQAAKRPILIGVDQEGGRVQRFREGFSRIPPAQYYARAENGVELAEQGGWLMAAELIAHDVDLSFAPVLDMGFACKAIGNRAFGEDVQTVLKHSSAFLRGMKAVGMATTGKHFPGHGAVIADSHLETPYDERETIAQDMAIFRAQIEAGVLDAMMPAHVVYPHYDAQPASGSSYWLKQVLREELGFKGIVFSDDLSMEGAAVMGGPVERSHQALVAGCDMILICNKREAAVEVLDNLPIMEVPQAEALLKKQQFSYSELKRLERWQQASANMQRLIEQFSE

Escherichia coli [4] = assay: Antimicrobial activity against ampD deficient Escherichia coli transfected with pCF1 by serial dilution method; format: functional
Escherichia coli [5] = assay: Antimicrobial activity against ampD deficient Escherichia coli in medium containing EtbuPUG by serial dilution method; format: functional
Escherichia coli [6] = assay: Antimicrobial activity against wild type EtbuPUG treated Escherichia coli transfected with pCF1 by serial dilution method; format: functional
Escherichia coli [7] = assay: Antimicrobial activity against wild type Escherichia coli in medium containing EtbuPUG by serial dilution method; format: functional
Escherichia coli [8] = assay: Antimicrobial activity against wild type Escherichia coli transfected with pCF1 by serial dilution method
Escherichia coli [9] = assay: Antimicrobial activity against ampD deficient Escherichia coli by serial dilution method; format: functional
Escherichia coli [10] = assay: Antimicrobial activity against wild type Escherichia coli by serial dilution method; format: functional
Escherichia coli [11] = assay: Antimicrobial activity against ampD deficient Escherichia coli transfected with pCF1 in medium containing EtbuPUG by serial dilution method; format: functional
Escherichia coli [12] = assay: Antimicrobial activity against ampD deficient Escherichia coli transfected with pCF1 by agar diffusion assay; format: functional
Escherichia coli [13] = assay: Antimicrobial activity against wild type Escherichia coli transfected with pCF1 by agar diffusion assay; format: functional
Escherichia coli [14] = assay: Antimicrobial activity against wild type Escherichia coli transfected with pCF1 in medium containing EtbuPUG by agar diffusion assay; format: functional
Escherichia coli [15] = assay: Antimicrobial activity against ampD deficient Escherichia coli transfected with pCF1 in medium containing EtbuPUG by agar diffusion assay; format: functional
[16] = Selectivity for Vibrio cholerae NagZ over human family 84 O-GLcNAcas
[17] = Selectivity for Vibrio cholerae NagZ over human family 20 beta-hexosaminidase
[18] = Inhibition of bovine family 20 beta-hexosaminidase; parameters: species or system Bos taurus

Protein O-GlcNAcase (Homo sapiens), sequence (O60502 whole entry, looked up): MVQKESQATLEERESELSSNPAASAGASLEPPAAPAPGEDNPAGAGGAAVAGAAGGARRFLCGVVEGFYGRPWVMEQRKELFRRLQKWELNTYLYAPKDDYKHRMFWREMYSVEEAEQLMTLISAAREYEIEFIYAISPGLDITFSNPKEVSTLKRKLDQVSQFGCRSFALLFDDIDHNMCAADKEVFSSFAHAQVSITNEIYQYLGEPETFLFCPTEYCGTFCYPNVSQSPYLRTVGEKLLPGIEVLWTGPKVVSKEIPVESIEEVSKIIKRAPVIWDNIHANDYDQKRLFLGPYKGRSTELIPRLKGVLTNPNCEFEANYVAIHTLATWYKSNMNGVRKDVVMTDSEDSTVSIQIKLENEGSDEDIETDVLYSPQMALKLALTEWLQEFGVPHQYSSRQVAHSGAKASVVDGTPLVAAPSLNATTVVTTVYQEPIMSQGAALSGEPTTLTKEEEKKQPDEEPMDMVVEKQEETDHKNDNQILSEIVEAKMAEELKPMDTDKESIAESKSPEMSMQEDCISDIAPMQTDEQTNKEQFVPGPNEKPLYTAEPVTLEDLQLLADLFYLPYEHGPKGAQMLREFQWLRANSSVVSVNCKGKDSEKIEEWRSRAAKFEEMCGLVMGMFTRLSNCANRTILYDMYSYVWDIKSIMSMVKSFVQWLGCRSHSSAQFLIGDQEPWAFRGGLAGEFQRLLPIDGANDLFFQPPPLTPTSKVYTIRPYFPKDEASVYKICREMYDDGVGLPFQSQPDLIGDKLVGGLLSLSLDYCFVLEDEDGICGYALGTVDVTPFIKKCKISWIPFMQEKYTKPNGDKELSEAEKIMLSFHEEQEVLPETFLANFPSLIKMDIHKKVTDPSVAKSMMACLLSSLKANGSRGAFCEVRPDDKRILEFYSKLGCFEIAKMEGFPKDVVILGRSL

Compound: CC(C)CC(=O)N[C@H]1/C(=N/OC(=O)Nc2ccccc2)O[C@H](CO)[C@@H](O)[C@@H]1O
- Ki [1]: 190 µM
- Selectivity ratio [2]: 13
- Ki (Homo sapiens): > 1200 µM
- Kinact [3]: 15 µM

Compound: CCCC(=O)N[C@H]1/C(=N/OC(=O)Nc2ccccc2)O[C@H](CO)[C@@H](O)[C@@H]1O
- Ki [1]: 40 µM
- Ki (Homo sapiens): 26 µM
- Kinact [3]: 0.26 µM

Compound: CO/N=C(\C(=O)N[C@@H]1C(=O)N2C(C(=O)O)=C(CSc3nc(=O)c(O)nn3C)CS[C@H]12)c1csc(N)n1 [CEFTRIAXONE]
- MIC (Escherichia coli [4]): 128 µg/mL (≈ 231 µM)
- MIC (Escherichia coli [5]): < 2 µg/mL
- MIC (Escherichia coli [6]): 16 µg/mL (≈ 28.9 µM)
- MIC (Escherichia coli [7]): < 1 µg/mL
- MIC (Escherichia coli [8]): 32 µg/mL (≈ 57.7 µM)
- MIC (Escherichia coli [9]): < 2 µg/mL
- MIC (Escherichia coli [10]): < 1 µg/mL
- MIC (Escherichia coli [11]): 32 µg/mL (≈ 57.7 µM)

Compound: CO[C@@]1(NC(=O)Cc2cccs2)C(=O)N2C(C(=O)O)=C(COC(N)=O)CS[C@@H]21 [CEFOXITIN]
- MIC (Escherichia coli [4]): 512 µg/mL (≈ 1200 µM)
- MIC (Escherichia coli [5]): 2 µg/mL (≈ 4.68 µM)
- inhibition zone (IZ) (Escherichia coli [12]): 8.8 mm
- MIC (Escherichia coli [6]): 32 µg/mL (≈ 74.9 µM)
- MIC (Escherichia coli [7]): 1 µg/mL (≈ 2.34 µM)
- inhibition zone (IZ) (Escherichia coli [13]): 9.3 mm
- MIC (Escherichia coli [8]): 64 µg/mL (≈ 150 µM)
- inhibition zone (IZ) (Escherichia coli [14]): 10.9 mm
- MIC (Escherichia coli [9]): 2 µg/mL (≈ 4.68 µM)
- MIC (Escherichia coli [10]): 1 µg/mL (≈ 2.34 µM)
- MIC (Escherichia coli [11]): 256 µg/mL (≈ 599 µM)
- inhibition zone (IZ) (Escherichia coli [15]): 10.8 mm

Compound: CCC(=O)N[C@H]1/C(=N/OC(=O)Nc2ccccc2)O[C@H](CO)[C@@H](O)[C@@H]1O
- Ki [1]: 1.2 µM
- Selectivity ratio [2]: 7.5
- Ki (Homo sapiens): 1.2 µM
- Kinact [3]: 0.16 µM

Compound: CC(C)C(=O)N[C@H]1/C(=N/OC(=O)Nc2ccccc2)O[C@H](CO)[C@@H](O)[C@@H]1O
- Ki [1]: 9 µM
- Selectivity ratio [2]: 18
- Ki (Homo sapiens): 20 µM
- Kinact [3]: 0.51 µM

Compound: CCC(CC)C(=O)N[C@H]1/C(=N/OC(=O)Nc2ccccc2)O[C@H](CO)[C@@H](O)[C@@H]1O
- Ki [1]: 337 µM
- Selectivity ratio [16]: 100
- Selectivity ratio [17]: 100
- Selectivity ratio [2]: 109
- Ki (Homo sapiens): > 3000 µM
- Kinact [3]: 3.1 µM

Compound: CC(=O)N[C@H]1/C(=N/OC(=O)Nc2ccccc2)O[C@H](CO)[C@@H](O)[C@@H]1O
- Ki (Homo sapiens): 0.036 µM
- Kinact [3]: 0.048 µM

Compound: CCCCC(=O)N[C@H]1/C(=N/OC(=O)Nc2ccccc2)O[C@H](CO)[C@@H](O)[C@@H]1O
- Ki [1]: 40 µM
- Selectivity ratio [2]: 121
- Ki (Homo sapiens): 220 µM
- Kinact [3]: 0.33 µM

Compound: CC(=O)N[C@H]1c2nc(CC(=O)O)cn2[C@H](CO)[C@@H](O)[C@@H]1O
- Ki [1]: 0.43 µM
- Selectivity ratio [2]: 0.03
- IC50 [18]: 0.0052 µM
- Kinact [3]: 15 µM

Compound: CC(=O)N[C@H]1/C(=N/O)O[C@H](CO)[C@@H](O)[C@@H]1O
- Ki [1]: 6.4 µM
- Selectivity ratio [2]: 29
- Kinact [3]: 0.22 µM

Compound: CO/N=C(\C(=O)N[C@@H]1C(=O)N2C(C(=O)O)=C(COC(C)=O)CS[C@H]12)c1csc(N)n1 [CEFOTAXIME]
- MIC (Escherichia coli [4]): 128 µg/mL (≈ 281 µM)
- MIC (Escherichia coli [5]): < 2 µg/mL
- inhibition zone (IZ) (Escherichia coli [12]): 7.1 mm
- MIC (Escherichia coli [6]): 16 µg/mL (≈ 35.1 µM)
- MIC (Escherichia coli [7]): 1 µg/mL (≈ 2.2 µM)
- inhibition zone (IZ) (Escherichia coli [13]): 10.3 mm
- MIC (Escherichia coli [8]): 64 µg/mL (≈ 141 µM)
- inhibition zone (IZ) (Escherichia coli [14]): 12.9 mm
- MIC (Escherichia coli [9]): < 2 µg/mL
- MIC (Escherichia coli [10]): 1 µg/mL (≈ 2.2 µM)
- MIC (Escherichia coli [11]): 64 µg/mL (≈ 141 µM)
- inhibition zone (IZ) (Escherichia coli [15]): 9 mm

Compound: CCCCCC(=O)N[C@H]1/C(=N/OC(=O)Nc2ccccc2)O[C@H](CO)[C@@H](O)[C@@H]1O
- Ki [1]: 220 µM
- Selectivity ratio [2]: 33
- Ki (Homo sapiens): > 900 µM
- Kinact [3]: 6.5 µM

Compound: CC(C)(O/N=C(\C(=O)N[C@@H]1C(=O)N2C(C(=O)[O-])=C(C[n+]3ccccc3)CS[C@H]12)c1csc(N)n1)C(=O)O [CEFTAZIDIME]
- MIC (Escherichia coli [4]): 256 µg/mL (≈ 468 µM)
- MIC (Escherichia coli [5]): < 2 µg/mL
- MIC (Escherichia coli [6]): 32 µg/mL (≈ 58.5 µM)
- MIC (Escherichia coli [7]): 1 µg/mL (≈ 1.83 µM)
- MIC (Escherichia coli [8]): 64 µg/mL (≈ 117 µM)
- MIC (Escherichia coli [9]): < 2 µg/mL
- MIC (Escherichia coli [10]): 1 µg/mL (≈ 1.83 µM)
- MIC (Escherichia coli [11]): 64 µg/mL (≈ 117 µM)

Reference: ChEMBL document CHEMBL1147978, “Small molecule inhibitors of a glycoside hydrolase attenuate inducible AmpC-mediated beta-lactam resistance” (J Biol Chem, 2007)
